Laboratory results published in patent US12227495B2, “Herbicidal compounds” (SYNGENTA CROP PROTECTION AG, priority 2018, dated 2025).

Tests used:
Assay type in all cases: in vivo
Details in all cases: evaluated after 13 days
[1] = tested on: Amaranthus retoflexus (AMARE); assay: Post-emergence herbicide test, glasshouse, percentage damage
Summary of the method: (§1)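 Damage was rated 13 days after spraying on a five-point scale (1=0-20% to 5=81-100%). The compound was applied at 500 g/ha unless stated otherwise, in acetone/water 50:50 plus 0.5% Tween 20, on day 1 (pre-emergence) or day 8 (post-emergence) after sowing. Plants were kept under glasshouse conditions of 24/16° C day/night and 14 h light.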

[2] = tested on: Echinochloa crus-galli (ECHCG); assay: as above
Summary of the method: as §1

[3] = tested on: Ipomoea hederacea (IPOHE); assay: as above
Summary of the method: as §1

[4] = tested on: Lolium perenne (LOLPE); assay: as above
Summary of the method: as §1

[5] = tested on: Setaria faberi (SETFA); assay: as above
Summary of the method: as §1

[6] = tested on: Solanum nigrum (SOLNI); assay: as above
Summary of the method: as §1

[7] = tested on: Amaranthus retoflexus (AMARE); assay: Pre-emergence herbicide test, glasshouse, percentage damage
Summary of the method: as §1

[8] = tested on: Echinochloa crus-galli (ECHCG); assay: as above
Summary of the method: as §1

[9] = tested on: Ipomoea hederacea (IPOHE); assay: as above
Summary of the method: as §1

[10] = tested on: Lolium perenne (LOLPE); assay: as above
Summary of the method: as §1

[11] = tested on: Setaria faberi (SETFA); assay: as above
Summary of the method: as §1

[12] = tested on: Solanum nigrum (SOLNI); assay: as above
Summary of the method: as §1

| Structure (SMILES) | percentage damage caused to the plant, AMARE ([1]; 1000 g/ha) | percentage damage caused to the plant, ECHCG ([2]; 1000 g/ha) | percentage damage caused to the plant, IPOHE ([3]; 1000 g/ha) | percentage damage caused to the plant, LOLPE ([4]; 1000 g/ha) | percentage damage caused to the plant, SETFA ([5]; 1000 g/ha) | percentage damage caused to the plant, SOLNI ([6]; 1000 g/ha) | Pre-emergence Test AMARE percentage damage (five point scale) ([7]; rate 1000 g/ha) | Pre-emergence Test ECHCG percentage damage (five point scale) ([8]; rate 1000 g/ha) | Pre-emergence Test IPOHE percentage damage (five point scale) ([9]; rate 1000 g/ha) | Pre-emergence Test LOLPE percentage damage (five point scale) ([10]; rate 1000 g/ha) | Pre-emergence Test SETFA percentage damage (five point scale) ([11]; rate 1000 g/ha) | Pre-emergence Test SOLNI percentage damage (five point scale) ([12]; rate 1000 g/ha) | other results |
| --- | --- | --- | --- | --- | --- | --- | --- | --- | --- | --- | --- | --- | --- |
| N#Cc1ccc(Oc2cccc(Cl)c2-c2cc(C(F)F)no2)nc1 [Compound A115] | 5 (5=81-100%) | 4 (4=61-80%) | 5 (5=81-100%) | 4 (4=61-80%) | 5 (5=81-100%) | 5 (5=81-100%) | 5 (5=81-100%) | 5 (5=81-100%) | 5 (5=81-100%) | 5 (5=81-100%) | 5 (5=81-100%) | 4 (4=61-80%) | – |
| N#Cc1cc(F)cnc1Oc1cccc(Cl)c1-c1cc(C(F)F)no1 [Compound A85] | 5 (5=81-100%) | 5 (5=81-100%) | 5 (5=81-100%) | 5 (5=81-100%) | 5 (5=81-100%) | 5 (5=81-100%) | 5 (5=81-100%) | 5 (5=81-100%) | 5 (5=81-100%) | 5 (5=81-100%) | 5 (5=81-100%) | 5 (5=81-100%) | – |
| Fc1cnc(Oc2ccccc2-n2cc(C(F)(F)F)cn2)c(F)c1 [Compound A18] | – | – | – | – | – | – | – | – | – | – | – | – | percentage damage caused to the plant, AMARE ([1]; 250 g/ha): 3 (3=41-60%); percentage damage caused to the plant, ECHCG ([2]; 250 g/ha): 4 (4=61-80%); percentage damage caused to the plant, IPOHE ([3]; 250 g/ha): 2 (2=21-40%); percentage damage caused to the plant, LOLPE ([4]; 250 g/ha): 2 (2=21-40%); percentage damage caused to the plant, SETFA ([5]; 250 g/ha): 3 (3=41-60%); percentage damage caused to the plant, SOLNI ([6]; 250 g/ha): 3 (3=41-60%); Pre-emergence Test AMARE percentage damage (five point scale) ([7]; rate 250 g/ha): 5 (5=81-100%); Pre-emergence Test ECHCG percentage damage (five point scale) ([8]; rate 250 g/ha): 5 (5=81-100%); Pre-emergence Test IPOHE percentage damage (five point scale) ([9]; rate 250 g/ha): 1 (1=0-20%); Pre-emergence Test LOLPE percentage damage (five point scale) ([10]; rate 250 g/ha): 1 (1=0-20%); Pre-emergence Test SETFA percentage damage (five point scale) ([11]; rate 250 g/ha): 5 (5=81-100%); Pre-emergence Test SOLNI percentage damage (five point scale) ([12]; rate 250 g/ha): 5 (5=81-100%) |
| Fc1cc(Cl)cnc1Oc1ccccc1-n1cc(Cl)cn1 [Compound A24, 5-chloro-2-[2-(4-chloropyrazol-1-yl)phenoxy]-3-fluoro-pyridine] | 4 (4=61-80%) | 4 (4=61-80%) | 3 (3=41-60%) | 3 (3=41-60%) | 4 (4=61-80%) | 4 (4=61-80%) | 5 (5=81-100%) | 5 (5=81-100%) | 3 (3=41-60%) | 4 (4=61-80%) | 5 (5=81-100%) | 3 (3=41-60%) | – |
| Fc1cccc(Oc2cc(C(F)(F)F)ccn2)c1-c1cc(C(F)F)no1 [Compound A8] | – | – | – | – | – | – | – | – | – | – | – | – | percentage damage caused to the plant, AMARE ([1]; 500 g/ha): 2 (2=21-40%); percentage damage caused to the plant, ECHCG ([2]; 500 g/ha): 2 (2=21-40%); percentage damage caused to the plant, IPOHE ([3]; 500 g/ha): 1 (1=0-20%); percentage damage caused to the plant, LOLPE ([4]; 500 g/ha): 1 (1=0-20%); percentage damage caused to the plant, SETFA ([5]; 500 g/ha): 4 (4=61-80%); percentage damage caused to the plant, SOLNI ([6]; 500 g/ha): 5 (5=81-100%); Pre-emergence Test AMARE percentage damage (five point scale) ([7]; rate 500 g/ha): 5 (5=81-100%); Pre-emergence Test ECHCG percentage damage (five point scale) ([8]; rate 500 g/ha): 2 (2=21-40%); Pre-emergence Test IPOHE percentage damage (five point scale) ([9]; rate 500 g/ha): 1 (1=0-20%); Pre-emergence Test LOLPE percentage damage (five point scale) ([10]; rate 500 g/ha): 1 (1=0-20%); Pre-emergence Test SETFA percentage damage (five point scale) ([11]; rate 500 g/ha): 3 (3=41-60%); Pre-emergence Test SOLNI percentage damage (five point scale) ([12]; rate 500 g/ha): 4 (4=61-80%) |
| Fc1cc(Cl)cnc1Oc1ccccc1-n1cc(C(F)(F)F)cn1 [Compound A16] | 4 (4=61-80%) | 5 (5=81-100%) | 5 (5=81-100%) | 5 (5=81-100%) | 5 (5=81-100%) | 5 (5=81-100%) | 5 (5=81-100%) | 5 (5=81-100%) | 5 (5=81-100%) | 5 (5=81-100%) | 5 (5=81-100%) | 5 (5=81-100%) | – |
| FC(F)c1cc(-c2c(Br)cccc2Oc2ccc(Br)cn2)on1 [Compound A106] | 5 (5=81-100%) | 4 (4=61-80%) | 4 (4=61-80%) | 5 (5=81-100%) | 5 (5=81-100%) | 5 (5=81-100%) | 4 (4=61-80%) | 5 (5=81-100%) | 3 (3=41-60%) | 5 (5=81-100%) | 5 (5=81-100%) | 3 (3=41-60%) | – |
| Fc1cccc(Oc2cccc(Br)c2-c2cc(C(F)F)no2)n1 [Compound A98] | 4 (4=61-80%) | 4 (4=61-80%) | 3 (3=41-60%) | 3 (3=41-60%) | 5 (5=81-100%) | 4 (4=61-80%) | 4 (4=61-80%) | 5 (5=81-100%) | 1 (1=0-20%) | 3 (3=41-60%) | 5 (5=81-100%) | 3 (3=41-60%) | – |
| Fc1cc(Cl)cnc1Oc1cccc(F)c1-c1ncc(C(F)F)o1 [Compound A35] | 5 (5=81-100%) | 1 (1=0-20%) | 2 (2=21-40%) | 1 (1=0-20%) | 4 (4=61-80%) | 5 (5=81-100%) | 3 (3=41-60%) | 5 (5=81-100%) | 1 (1=0-20%) | 1 (1=0-20%) | 5 (5=81-100%) | 5 (5=81-100%) | – |
